Data as given in US8097641B2, “Heterocyclyl substituted tetrahydronaphthalene derivatives as 5-HT7 receptor ligands” (Laboratorios del Dr. Esteve, S.A., priority 2007, dated 2012).
Structures can show the parent of a compound that is named as a salt.

Target: T1, Cloned Human Serotonin Receptor, Subtype 7 (h5HT7) (Homo sapiens, UniProt P34969)
T1 construct: purchased PerkinElmer 6120512; host or cells: CHO cells (membranes coated on Basic FlashPlate SMP200)
Assay: Radioligand binding assay, cloned human serotonin receptor subtype 7 (h5HT7) expressed in CHO cells, [125I]LSD
Details: for IC50: [125I]LSD 0.82 nM, h5HT7 membranes from CHO cells, read-out: 5-HT7 IC50; for inhibition at 1 µM: compound at 10^−6 M, read-out: 5-HT7 %-Inhib. (10^−6 M)
Experimental: Radioligand binding assays were performed using the Cloned Human Serotonin Receptor, Subtype 7 (h5HT7), expressed in CHO cells, coated on Flashplate (Basic FlashPlate Cat.: SMP200) from PerkinElmer (Cat.: 6120512). The protocol assay was essentially the recommended protocol in the Technical Data Sheet by PerkinEmer Life and Analytical Sciences. The Mass membrane protein/well was typically 12 μg and the Receptor/well was about 9-10 fmoles. The Flashplate were let equilibrate at room temperature for one hour before the addition of the components of the assay mixture. The binding buffer was: 50 mM Tris-HCl, pH 7.4, containing 10 mM MgCl2, 0.5 mM EDTA and 0.5% BSA. The radioligand was [^125I]LSD at a final concentration of 0.82 nM. Nonspecific binding was determined with 50 μM of Clozapine. The assay volume was 25 μl. TopSeal-A were applied onto Flashplate microplates and they were incubated at room temperature for 240 minutes in darkness. The radioactivity were quantified by liquid scintillation spectrophotometry (Wallac 1450 Microbeta Trilux) with a count delay of 4 minutes prior to counting and a counting time of 30 seconds per well. Competition binding data were analyzed by using the LIGAND program (Munson and Rodbard, LIGAND: A versatile, computerized approach for characterization of ligand-binding systems. Anal. Biochem. 107: 220-239, 1980) and assays were performed in triplicate determinations for each point.

T1 sequence (P34969 whole entry): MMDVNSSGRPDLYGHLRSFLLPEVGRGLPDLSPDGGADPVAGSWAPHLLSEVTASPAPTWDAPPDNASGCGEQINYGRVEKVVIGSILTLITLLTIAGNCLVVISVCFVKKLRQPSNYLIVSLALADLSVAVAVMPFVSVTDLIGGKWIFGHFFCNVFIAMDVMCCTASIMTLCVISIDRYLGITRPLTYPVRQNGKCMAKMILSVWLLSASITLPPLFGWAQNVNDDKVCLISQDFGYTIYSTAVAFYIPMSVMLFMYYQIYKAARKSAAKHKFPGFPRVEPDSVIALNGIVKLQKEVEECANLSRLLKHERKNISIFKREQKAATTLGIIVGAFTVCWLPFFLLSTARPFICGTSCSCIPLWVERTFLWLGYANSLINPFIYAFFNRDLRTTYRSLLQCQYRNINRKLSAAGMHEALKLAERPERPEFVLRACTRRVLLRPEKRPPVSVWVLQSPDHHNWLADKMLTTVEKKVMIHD

| SMILES | IC50 | inhibition at 1 µM | inhibition at 0.1 µM (compound at 10^−7 M, read-out: 5-HT7 %-Inhib. (10^−7 M)) |
| --- | --- | --- | --- |
| Cc1nn(C)c(C)c1-c1cccc2c1CC[C@H](N(C)Cc1ccccc1)C2 [Example F, (2S)-Benzyl-methyl-[5-(1,3,5-trimethyl-1H-pyrazol-4-yl)-1,2,3,4-tetrahydro-naphthalen-2-yl]-amine] | 187 nM |  |  |
| Cc1nn(C)c(C)c1-c1cccc2c1CC[C@H](N)C2 [Example O, (2S)-5-(1,3,5Trimethyl-1H-pyrazol-4-yl)-1,2,3,4-tetrahydro-naphthalen-2-ylamine dihydrochloride] | 25 ± 3.8 nM | 79% | 47.2% |
| Cc1nn(C)c(C)c1-c1cccc2c1CC[C@H](NC(C)C)C2 [Example P, (2S)-Isopropyl-[5-(1,3,5-trimethyl-1H-pyrazol-4-yl)-1,2,3,4-tetrahydro-naphthalen-2-yl]-amine] | 587 ± 10 nM | 61.7% |  |
